Assay results taken from patent US5026910A, “Polyfluoroalkyl nitrogen compounds, processes for their preparation and their use” (Societe Atochem, priority 1989, dated 1991).

Legend:
[1] = interfacial tension of aqueous solution (0.1%) relative to cyclohexane; type: physicochemical; details: 25° C.; for γi (interfacial tension relative to cyclohexane): Table 6, aqueous solution at a concentration of 0.1%
Procedure: (§1) The surface tension of an aqueous solution containing 0.1% of this salt is 19.2 mN m^-1 at 25° C. The interfacial tension of an aqueous solution containing 0.1% of this salt, in equilibrium with cyclohexane, is 5.8 mN m^-1 at 25° C.
(§2) The surface tension of an aqueous solution containing 0.1% of this salt is 15.5 mN m^-1 at 25° C. The interfacial tension of an aqueous solution containing 0.1% of this salt, in equilibrium with cyclohexane, is 6.4 mN m.-1 at 25° C.
(§3) The surface tension Ys and interfacial tension Yi (relative to cyclohexane)of the ammonium salt in question, which are measured at 25° C. in aqueous solution at a concentration of 0.1%, are shown in the fourth and fifth columns of Table 6, the third column showing the yield.
(§4) The surface tension of an aqueous solution containing 0.1% of this salt is 15.5 mN m^-1 at 25° C. The interfacial tension in relation to cyclohexane in the same conditions is 5.5 mN m^-1 .
(§5) By proceeding in the same manner starting with 1,3-dibromopropane, the double quaternary salt of formula: [drawing 24] is obtained in a 98% yield. The surface tension of an aqueous solution containing 0.1% of this salt is 16.4 mN m^-1 at 25° C. The interfacial tension relative to cyclohexane in the same conditions is 7.7 mN m^1.

[2] = surface tension of aqueous solution (0.1%); type: physicochemical; details: for surface tension: aqueous solution containing 0.1%; for γs (surface tension): aqueous solution at a concentration of 0.1%
Procedure: as §1, §2
This yields the corresponding quaternary salts of formula: [drawing 19] which are colorless or slightly orange-colored pastes. These salts are completely water-soluble. Their yield and the surface tension at 25° C. of an aqueous solution at a concentration of 0.1% are shown in the second and third columns of Table 5.
as §3, §4, §5
The surface tension of an aqueous solution containing 0.1% of this N-oxide at 25° C. is 16.3 mN m^-1
The surface tension of an aqueous solution containing 1 0.1% of this betaine is 16.2 mN m^-1.

[3] = aqueous solution containing 0.1%, cyclohexane

Row | SMILES | γi (interfacial tension relative to cyclohexane) ([1]; cyclohexane) [mN m^-1] | γs (surface tension) ([2]; Table 6, 25° C.) [mN m^-1] | also measured
1 | C[N+](C)(C)CCNC(=S)NCCC(F)(F)C(F)(F)C(F)(F)C(F)(F)C(F)(F)C(F)(F)F | – | – | interfacial tension in equilibrium with / relative to cyclohexane [1, 3]: 5.8 mN m^-1; surface tension ([2]; 25° C.): 19.2 mN m^-1
2 | C[N+](C)(C)CCNC(=S)NCCC(F)(F)C(F)(F)C(F)(F)C(F)(F)C(F)(F)C(F)(F)C(F)(F)C(F)(F)F | – | – | interfacial tension in equilibrium with cyclohexane [1, 3]: 6.4 mN m.-1; surface tension ([2]; 25° C.): 15.5 mN m^-1
3 | C[N+](C)(CCNC(=S)NCCC(F)(F)C(F)(F)C(F)(F)C(F)(F)C(F)(F)C(F)(F)F)Cc1ccccc1 | – | – | γs (surface tension) ([2]; Table 5, 25° C.): 17.4 mN m^-1
4 | C[N+](C)(CCNC(=S)NCCC(F)(F)C(F)(F)C(F)(F)C(F)(F)C(F)(F)C(F)(F)F)CC[N+](C)(C)CCNC(=S)NCCC(F)(F)C(F)(F)C(F)(F)C(F)(F)C(F)(F)C(F)(F)F | – | – | interfacial tension in equilibrium with / relative to cyclohexane [1, 3]: 5.5 mN m^-1; surface tension ([2]; 25° C.): 15.5 mN m^-1
5 | C[N+](C)(CCC[N+](C)(C)CCNC(=S)NCCC(F)(F)C(F)(F)C(F)(F)C(F)(F)C(F)(F)C(F)(F)F)CCNC(=S)NCCC(F)(F)C(F)(F)C(F)(F)C(F)(F)C(F)(F)C(F)(F)F | – | – | interfacial tension relative to cyclohexane ([1]; in the same conditions: aqueous solution containing 0.1%): 7.7 mN m^1; surface tension ([2]; 25° C.): 16.4 mN m^-1
6 | C[N+](C)([O-])CCNC(=S)NCCC(F)(F)C(F)(F)C(F)(F)C(F)(F)C(F)(F)C(F)(F)F | – | – | surface tension ([2]; 25° C.): 16.3 mN m^-1
7 | C[N+](C)(CCNC(=S)NCCC(F)(F)C(F)(F)C(F)(F)C(F)(F)C(F)(F)C(F)(F)F)CC(=O)[O-] | – | – | surface tension ([2]; temperature not given): 16.2 mN m^-1
8 | CCCCCCCC[N+](C)(C)CCNC(=S)NCCC(F)(F)C(F)(F)C(F)(F)C(F)(F)F [C4 F9 / C8 H17] | 0.7 | 19.7 | –
9 | CCCCCCCCCCCC[N+](C)(C)CCNC(=S)NCCC(F)(F)C(F)(F)C(F)(F)C(F)(F)F [C4 F9 / C12 H25] | 1.9 | 23.1 | –
10 | CCCCCCCCCCCCCCCC[N+](C)(C)CCNC(=S)NCCC(F)(F)C(F)(F)C(F)(F)C(F)(F)F [C4 F9 / C16 H33] | 2.1 | 26.8 | –
11 | CCCCCCCC[N+](C)(C)CCNC(=S)NCCC(F)(F)C(F)(F)C(F)(F)C(F)(F)C(F)(F)C(F)(F)F [C6 F13 / C8 H17] | 1.4 | 15.9 | –
12 | CCCCCCCCCCCC[N+](C)(C)CCNC(=S)NCCC(F)(F)C(F)(F)C(F)(F)C(F)(F)C(F)(F)C(F)(F)F [C6 F13 / C12 H25] | 0.8 | 17.5 | –
13 | CCCCCCCCCCCCCCCC[N+](C)(C)CCNC(=S)NCCC(F)(F)C(F)(F)C(F)(F)C(F)(F)C(F)(F)C(F)(F)F [C6 F13 / C16 H33] | 0.7 | 20.3 | –
14 | CCCCC[N+](C)(C)CCNC(=S)NCCC(F)(F)C(F)(F)C(F)(F)C(F)(F)C(F)(F)C(F)(F)C(F)(F)C(F)(F)F [C8 F17 / C5 H11] | 2 | 16 | –
15 | CCCCCCCC[N+](C)(C)CCNC(=S)NCCC(F)(F)C(F)(F)C(F)(F)C(F)(F)C(F)(F)C(F)(F)C(F)(F)C(F)(F)F [C8 F17 / C8 H17] | 3.2 | 15.9 | –
16 | CCCCCCCCCCCC[N+](C)(C)CCNC(=S)NCCC(F)(F)C(F)(F)C(F)(F)C(F)(F)C(F)(F)C(F)(F)C(F)(F)C(F)(F)F [C8 F17 / C12 H25] | 2.2 | 15.2 | –
17 | C=CC[N+](C)(C)CCNC(=S)NCCC(F)(F)C(F)(F)C(F)(F)C(F)(F)C(F)(F)C(F)(F)F [CH2CHCH2Br] | – | – | γs (surface tension) ([2]; Table 5, 25° C.): 16.4 mN m^-1
18 | C[N+](C)(CCO)CCNC(=S)NCCC(F)(F)C(F)(F)C(F)(F)C(F)(F)C(F)(F)C(F)(F)F [HOC2 H4Br] | – | – | γs (surface tension) ([2]; Table 5, 25° C.): 15.4 mN m^-1
